{
  "source": "patent US20050163781A1",
  "about": "“Tissue adhesion formation control” (priority 2002, published 2005)",
  "key": {"adhesion formation [1]": {"tested_on": "adhesion formation", "conditions": "0, 1, 2.5, 5, 10 and 20% of oxygen in CO2 pneumoperitoneum for 1 hour, laser lesions, rabbits"}, "adhesion formation [2]": {"tested_on": "adhesion formation", "conditions": "oxygen added to CO2 pneumoperitoneum, intubated mice", "description": "In adult, female, NMRI (Naval Medical Research Institute) mice adhesions were induced by laparoscopy and evaluated by laparotomy under microscopic view in order to assess similar variables than in the rabbit model. […] The endoscope with an outer sheath for insufflation (total diameter 3.2 mm) was introduced caudal to the xyphoides by open laparoscopy. Survival after different insufflation pressures and duration of pneumoperitoneum was evaluated in non-intubated and intubated mice. […] For the induction of adhesions, after the establishment of the pneumoperitoneum, the 2nd and 3rd ports (14-gauge catheters) were introduced in the left and right flanks under laparoscopic vision. Standardised, opposing, linear lesions in the anti-mesenteric border of uterine horns and in the pelvic sidewalls were performed by monopolar coagulation. After 7 or 28 days adhesions were evaluated by scoring extent, type and tenacity and by a quantitative measurement. In non-intubated mice CO2 pneumoperitoneum at 2.5 cm of water was maintained for 5, 15, 30, 60 and 120 min to evaluate the effect of duration of pneumoperitoneum. […] To confirm this effect and to evaluate the effect of desiccation due to the flow rate though the animal, pneumoperitoneum was maintained for 5 and 60 min without flow and for 60 min with 1 and 10 ml/min of flow rate. […]"}},
  "data": [
    {"molecule": "O=O", "note": "[oxygen]", "values": [
      {"measurement": "oxygen proportion at which maximal effect (decrease of adhesion formation) was observed", "setting": "adhesion formation [1]", "value": "5 % of oxygen"},
      {"measurement": "oxygen proportion giving half maximal reduction of adhesions", "setting": "adhesion formation [2]", "value": "around 1.5 % of oxygen"},
      {"measurement": "oxygen proportion required for maximal response (reduction of adhesions)", "setting": "adhesion formation [2]", "value": "2-3 % of oxygen"}
    ]}
  ]
}
